Values of other authors, collected in patent publication US20230354835A1, “USE OF LIQUID SMOKE IN CONJUNCTION WITH FOOD GRADE COATINGS TO CONTROL PEST INFESTATIONS” (Mississippi State University, priority 2022, published 2023).

Tested on: Tyrophagus putrescentiae
Conditions: Abbar et al., 2016a; coating on ham cubes 2.5×2.5×2.5 cm^3

Structure (SMILES): CC(O)CO (stereo not shown) [100% propylene glycol, 1,2-propanediol]
- Inhibition of mite growth on dry-cured ham cubes (in words): effective at inhibiting mite growth
